# Where two headings read alike, the source gives them in different places.
# Key:
# [1] = system: carrageenan-induced thermal hyperalgesia and edema; test: Intraplantar carrageenan model of acute inflammatory pain (Hargreaves test, paw volume); assay type: in vivo, rat; details: 30 mg/kg p.o., dosed preemptively, assessed 4 h post-carrageenan
# Experimental: The intraplantar carrageenan model of acute inflammatory pain in the rat results in behaviors similar to that observed in patients and has been widely used to assess novel pharmacological treatments (Whiteside, et al., 2005, J. Pharmacol. Exp. Ther. 314:1234-1240).
# For this assay, paw withdrawal latency to a thermal stimulus was assessed using a radiant heat source (Ugo Basile, Italy) aimed at the plantar surface of the left hind paw (Hargreaves test). A cut-off latency of 40 sec is set to avoid tissue damage. Paw volume was measured by displacement of water and assuming a tissue density equal to that of water. Baseline latencies were taken prior to carrageenan administration and re-assessed 4 h later. Compounds of the invention or vehicle were administered (10 and 30 mg/kg, p.o.) 3 h after carrageenan (curative) and behavior assessed 1 h later. Additionally, compounds of the invention were administered 15 minutes prior to carrageenan (preemptive) and behavior assessed 4 h post carrageenan. Indomethacin (positive control, 30 mg/kg p.o.) was administered prior to carrageenan and behavior assessed 4 h post-carrageenan.
# Intraplantar injection of carrageenan was performed under 2.5-4.0% isoflurane/O2 anesthesia, delivered via nose cone. After induction of anesthesia, the injection site was prepared in a sterile manner and 50 μL of a 2% λ-carrageenan was injected. […]
# [2] = Inhibition of SIN1-mediated peroxynitrite oxidation of luminol (L-012 assay); assay type: biochemical; details: for Peroxynitrite gen (% control, 10 μM): compound at 10 μM, SIN-1 100 μM, L-012, PBS pH 8.5
# Experimental: Luminol-like compounds such as L-012 are chemilumescent probes that are oxidized by the presence of ROS and RNS such as peroxynitrite. In this assay L-012 is oxidized by the addition of 3-morpholino-sydnonimine (SIN-1), a known peroxynitrite generator. The emitted luminescence is directly proportional to the concentration of SIN-1. The compounds were assessed for their ability to neutralize/scavenge/decompose peroxynitrite by blocking the increase of peroxynitrite induced chemilumescence. Concentrations of compound producing 50% inhibition of the luminescence signal (IC50 values) were calculated by testing the compounds at various concentrations of two parallel measurements.
# Stock solution (10 mM) of compounds were prepared in 100% DMSO.
# The following solutions were added to white polystyrene, non-sterile 96-well plate (Thermo Scientifi NUNC™ 96 MICROWELL™ White Polystyrene Plates #447796): • 10 μL SIN-1 2 mM in 100% DMSO solution (SIN-1 final concentration 100 DMSO final volume—5%); • 190 μL L012+/−test compound in phosphate-buffered solution (PBS, pH=8.5) (L012 final concentration 100 μM).
# Luminescence signal was recorded by Hidex Sense multimodal microplate reader (Hidex) at 30° C. for 30 min, with a measurement every 60 sec and an integration time of 1 sec.
# IC50 values were calculated using two different methods; first by measuring the slopes of the steepest linear portion of the kinetic profile during the first 5 min (as % from control) and secondly, by measuring the maximal luminiscence at 30 min time point (as % from control). IC50 values of the tested compounds were calculated using GraphPad Prism 5.0 software package.
# [3] = system: nerve injury induced tactile allodynia; test: Rat spinal nerve ligation (SNL) model, tactile allodynia (von Frey); assay type: in vivo; details: 100 mg/kg i.p.
# Experimental: The spinal nerve ligation (SNL) model of neuropathic pain in the rat results in behaviors similar to that observed in patients (Kim & Chung, 1992, Pain 50(3):355-63) and has been widely used to assess novel pharmacological treatments (Sindrup & Jensen, 1999, Pain 83(3):389-400). Compounds of the invention were evaluated for its ability to reverse or prevent development of tactile allodynia in a rat model of neuropathic pain.
# The positive control was gabapentin (Toronto Research Chemicals, Canada). The negative control was vehicle (0.5% methyl cellulose; 2-hydroxy-propyl-beta-cyclodextrin). Male Sprague-Dawley Rats (Harlan, 11) were 250-300 g at time of dosing. […]
# The effect of compounds of the invention on nerve injury induced tactile allodynia was investigated using von Frey filaments 1-3 weeks after tight ligation of the LS spinal nerve. Tactile thresholds were assessed using a series of calibrated von Frey monofilaments (Stoelting, Wood Dale, Ill.). Assessment of tactile allodynia was measured as the hind paw-withdrawal threshold that produced a 50% likelihood of a withdrawal using the up-down method. Thresholds were evaluated before surgery, and they were reassessed 1-3 weeks after SNL surgery. […] Tactile thresholds were again assessed either 1 and 3 h, 3 and 5 h or once weekly after administration. […]
# [4] = system: latency to fall from rotarod; test: Accelerating rotarod assay of ataxia; assay type: in vivo, rat; details: 3 mg/kg p.o., 1 h post-administration
# Experimental: Ataxia is a common clinical problem with CNS-active compounds and can often confound interpretation of efficacy in preclinical pain models. The rotarod assay of ataxia has been widely used to assess the side-effect liability of novel pharmacological treatments (Jones & Roberts, 1968, J. Pharm. Pharmacol. 20:302-04).
# The effect of compounds of the invention to impact latency to fall in an accelerating rotarod assay of ataxia in rats was evaluated. The positive control was haloperidol (Sigma, St. Louis), and the negative control was vehicle (which was hydroxypropylmethyl-cellulose and 15% DMA, 65% PEG300, and 20% D5W for haloperidol).
# Male Sprague-Dawley Rats (Harlan, Ill.) were 250-300 g at time of dosing. Rotarod was obtained from IITC, CA. To examine the potential effects of compounds of the invention on motor performance, rats were tested on an accelerating rotarod (IITC, Ca). In this assay, rats were placed on the rotarod with the speed set to accelerate from 4 to 40 rpm over 300 sec. The maximum time spent on the rotarod was set at 300 seconds. Rats received two timed training trials (averaged to give the reported baseline) on the first day, then 24 h later rats were administered compound of the invention (30, 100 and 300 mg/kg, p.o.), haloperidol (3 mg/kg, p.o.) or vehicle.
# [5] = from maximal luminescence at 30 min time point, read-out: IC50 (μM) (% luminol absorb. @ 30 min)
# [6] = from slopes of steepest linear portion of kinetic profile during first 5 min, read-out: IC50 (μM) (% PN gen)
Structure (SMILES),prevention of carrageenan-induced edema (paw volume) [1],prevention of carrageenan-induced thermal hyperalgesia [1],"Peroxynitrite gen (% control, 10 μM) [2]","IC50 [2, 5]","IC50 [2, 6]",reversal of tactile allodynia [3],motor performance / latency to fall in rotarod [4]
COc1ccc2c(c1)c(CC(=O)O)c(C)n2C(=O)c1ccc(Cl)cc1 [indomethacin],statistically significant prevention,statistically significant prevention,,,,,
"CC1(C)SC(Nc2ncccc2O)=N[C@@H]1C(=O)O.Cl [Compound 4a, (R)-2-(3-Hydroxy-pyridin-2-ylamino)-5,5-dimethyl-4,5-dihydro-thiazole-4-carboxylic acid hydrochloride]",,,0 % control,1.8 µM,0.26 µM,,
NCC1(CC(=O)O)CCCCC1 [gabapentin],,,,,,statistically significant reversal of allodynia,
"Cl.O=C(O)[C@H]1CSC(Nc2ncccc2O)=N1 [Compound 8a, (S)-2-((3-hydroxypyridin-2-yl)amino)-4,5-dihydrothiazole-4-carboxylic acid hydrochloride]",,,0 % control,2.1 µM,0.23 µM,,
O=C(CCCN1CCC(O)(c2ccc(Cl)cc2)CC1)c1ccc(F)cc1 [haloperidol],,,,,,,significant motor deficits
"CC1(C)SC(Nc2cnccc2O)=N[C@@H]1C(=O)O.Cl [Compound 12a, (R)-2-((4-Hydroxypyridin-3-yl)amino)-5,5-dimethyl-4,5-dihydrothiazole-4-carboxylic acid hydrochloride]",,,82 % control,> 10 µM,> 10 µM,,
"CC1(C)SC(Nc2cccnc2O)=N[C@@H]1C(=O)O.Cl [Compound 22a, (R)-2-((2-Hydroxypyridin-3-yl)amino)-5,5-dimethyl-4,5-dihydrothiazole-4-carboxylic acid hydrochloride]",,,96 % control,> 10 µM,> 10 µM,,
"CC1(C)SC(Nc2cccnc2O)=N[C@H]1C(=O)O.Cl [Compound 23a, (S)-2-((2-Hydroxypyridin-3-yl)amino)-5,5-dimethyl-4,5-dihydrothiazole-4-carboxylic acid hydrochloride]",,,67 % control,> 10 µM,> 10 µM,,
"CC1(C)SC(Nc2ccncc2O)=N[C@H]1C(=O)O.Cl [Compound 18a, (S)-2-((3-Hydroxypyridin-4-yl)amino)-5,5-dimethyl-4,5-dihydrothiazole-4-carboxylic acid hydrochloride]",,,77 % control,> 10 µM,> 10 µM,,
"Cl.O=C(O)[C@@H]1CSC(Nc2cnccc2O)=N1 [Compound 25a, (R)-2-((4-Hydroxypyridin-3-yl)amino)-4,5-dihydrothiazole-4-carboxylic acid hydrochloride]",,,111 % control,> 10 µM,> 10 µM,,
"Cl.O=C(O)[C@@H]1CSC(Nc2ncccc2O)=N1 [Compound 7a, (R)-2-((3-hydroxypyridin-2-yl)amino)-4,5-dihydrothiazole-4-carboxylic acid hydrochloride]",,,0 % control,1.8 µM,0.17 µM,,
"CC1(C)SC(Nc2ncccc2O)=N[C@H]1C(=O)O.Cl [Compound 5a, (S)-2-(3-Hydroxy-pyridin-2-ylamino)-5,5-dimethyl-4,5-dihydro-thiazole-4-carboxylic acid hydrochloride]",,,0 % control,1.6 µM,0.17 µM,,
"CC1(C)SC(Nc2ccncc2O)=N[C@@H]1C(=O)O.Cl [Compound 17a, (R)-2-((3-Hydroxypyridin-4-yl)amino)-5,5-dimethyl-4,5-dihydrothiazole-4-carboxylic acid hydrochloride]",,,75 % control,> 10 µM,> 10 µM,,
"Cl.O=C(O)[C@@H]1CSC(Nc2ccncc2O)=N1 [Compound 27a, (R)-2-(3-Hydroxy-pyridin-4-ylamino)-4,5-dihydro-thiazole-4-carboxylic acid hydrochloride]",,,61 % control,> 10 µM,> 10 µM,,

# — US10844054B2, “Compounds for pain treatment, compositions comprising same, and methods of using same” (CERSCI THERAPEUTICS, INC., priority 2018, dated 2020)
